What was measured:
Assay in all cases: relative viability (nuclei count vs DMSO), 5 days (fraction); higher = more cells survive
[1] = compound: C[C@@]1(C(=O)Nc2ccc(F)nc2)CCCN1c1nc(Nc2cc(C3CC3)n[nH]2)c2cccn2n1 + Cc1nc(Nc2ncc(C(=O)Nc3c(C)cccc3Cl)s2)cc(N2CCN(CCO)CC2)n1 [Dasatinib] (partner 0.075 µM)
Summary of the method: (§1)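 Dosing by pin tool came one day after lung cancer cell lines were seeded in 1536-well plates, using either one drug or a fixed anchor-drug dose plus five library-drug doses (not always all listed) in √10 steps. After 5 days, nuclei were counted on 4× images. Relative viability is treated-well nuclei count divided by vehicle-well nuclei count, and values are medians of duplicate plates.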

[2] = compound: CC1(C)CNc2cc(NC(=O)c3cccnc3NCc3ccncc3)ccc21 [Motesanib] + Nc1ncn([C@H]2C[C@H](O)[C@@H](CO)O2)c(=O)n1 [Decitabine] (partner 2 µM)
Summary of the method: as §1

[3] = compound: C[C@@]1(C(=O)Nc2ccc(F)nc2)CCCN1c1nc(Nc2cc(C3CC3)n[nH]2)c2cccn2n1 + CCNC(=O)c1noc(-c2cc(C(C)C)c(O)cc2O)c1-c1ccc(CN2CCOCC2)cc1 [Luminespib] (partner 0.01 µM)
Summary of the method: as §1

[4] = compound: CC1(C)CNc2cc(NC(=O)c3cccnc3NCc3ccncc3)ccc21 [Motesanib] + CC(C)C[C@H](NC(=O)[C@H](Cc1ccccc1)NC(=O)c1cnccn1)B(O)O [Bortezomib] (partner 0.002 µM)
Summary of the method: as §1

With NCI-H1993 the relative viability ([1]; first compound 0.04 µM) was 0.523, the relative viability ([1]; first compound 0.1265 µM) was 0.454 and the relative viability ([1]; first compound 0.4 µM) was 0.356. It also gave a relative viability ([1]; first compound 1.265 µM) of 0.512, a relative viability ([2]; first compound 0.01 µM) of 0.598 and a relative viability ([2]; first compound 0.03162 µM) of 0.568. It also gave a relative viability ([2]; first compound 0.1 µM) of 0.609, a relative viability ([2]; first compound 0.3162 µM) of 0.657 and a relative viability ([2]; first compound 1 µM) of 0.659. For the same cell line, the relative viability ([3]; first compound 0.04 µM) was 0.535, the relative viability ([3]; first compound 0.1265 µM) was 0.476 and the relative viability ([3]; first compound 0.4 µM) was 0.275. It also gave a relative viability ([3]; first compound 1.265 µM) of 0.555, a relative viability ([4]; first compound 0.01 µM) of 1.09 and a relative viability ([4]; first compound 0.03162 µM) of 1.06. The relative viability ([4]; first compound 0.1 µM) was 1.08, the relative viability ([4]; first compound 0.3162 µM) was 1.28 and the relative viability ([4]; first compound 1 µM) was 1.06.
NCI-H2009 showed a relative viability ([1]; first compound 0.04 µM) of 0.279, a relative viability ([1]; first compound 0.1265 µM) of 0.224 and a relative viability ([1]; first compound 0.4 µM) of 0.166. The relative viability ([1]; first compound 1.265 µM) was 0.154, the relative viability ([2]; first compound 0.01 µM) was 0.394 and the relative viability ([2]; first compound 0.03162 µM) was 0.369. For the same cell line, the relative viability ([2]; first compound 0.1 µM) was 0.394, the relative viability ([2]; first compound 0.3162 µM) was 0.38 and the relative viability ([2]; first compound 1 µM) was 0.463. The relative viability ([3]; first compound 0.04 µM) was 1.11, the relative viability ([3]; first compound 0.1265 µM) was 1.08 and the relative viability ([3]; first compound 0.4 µM) was 1.01. For the same cell line, the relative viability ([3]; first compound 1.265 µM) was 1.07, the relative viability ([4]; first compound 0.01 µM) was 1.07 and the relative viability ([4]; first compound 0.03162 µM) was 1.05. It also gave a relative viability ([4]; first compound 0.1 µM) of 1.05, a relative viability ([4]; first compound 0.3162 µM) of 1.2 and a relative viability ([4]; first compound 1 µM) of 1.
For NCI-H2023, the relative viability ([1]; first compound 0.04 µM) was 0.407, the relative viability ([1]; first compound 0.1265 µM) was 0.165 and the relative viability ([1]; first compound 0.4 µM) was 0.154. It also gave a relative viability ([1]; first compound 1.265 µM) of 0.105, a relative viability ([2]; first compound 0.01 µM) of 0.23 and a relative viability ([2]; first compound 0.03162 µM) of 0.226. For the same cell line, the relative viability ([2]; first compound 0.1 µM) was 0.281, the relative viability ([2]; first compound 0.3162 µM) was 0.25 and the relative viability ([2]; first compound 1 µM) was 0.347. It also gave a relative viability ([3]; first compound 0.04 µM) of 0.58, a relative viability ([3]; first compound 0.1265 µM) of 0.336 and a relative viability ([3]; first compound 0.4 µM) of 0.37. For the same cell line, the relative viability ([3]; first compound 1.265 µM) was 0.192, the relative viability ([4]; first compound 0.01 µM) was 0.934 and the relative viability ([4]; first compound 0.03162 µM) was 1.07. It also gave a relative viability ([4]; first compound 0.1 µM) of 0.887, a relative viability ([4]; first compound 0.3162 µM) of 0.966 and a relative viability ([4]; first compound 1 µM) of 1.09.
With NCI-H2085 the relative viability ([1]; first compound 0.04 µM) was 0.289, the relative viability ([1]; first compound 0.1265 µM) was 0.309 and the relative viability ([1]; first compound 0.4 µM) was 0.187. For the same cell line, the relative viability ([1]; first compound 1.265 µM) was 0.178, the relative viability ([2]; first compound 0.01 µM) was 0.551 and the relative viability ([2]; first compound 0.03162 µM) was 0.684. For the same cell line, the relative viability ([2]; first compound 0.1 µM) was 0.702, the relative viability ([2]; first compound 0.3162 µM) was 0.644 and the relative viability ([2]; first compound 1 µM) was 0.71. It also gave a relative viability ([3]; first compound 0.04 µM) of 0.431, a relative viability ([3]; first compound 0.1265 µM) of 0.405 and a relative viability ([3]; first compound 0.4 µM) of 0.365. It also gave a relative viability ([3]; first compound 1.265 µM) of 0.54, a relative viability ([4]; first compound 0.01 µM) of 1.14 and a relative viability ([4]; first compound 0.03162 µM) of 1.12. It also gave a relative viability ([4]; first compound 0.1 µM) of 0.977, a relative viability ([4]; first compound 0.3162 µM) of 1.09 and a relative viability ([4]; first compound 1 µM) of 1.14.
With NCI-H2087 the relative viability ([1]; first compound 0.04 µM) was 0.727, the relative viability ([1]; first compound 0.1265 µM) was 0.568 and the relative viability ([1]; first compound 0.4 µM) was 0.508. The relative viability ([1]; first compound 1.265 µM) was 0.389, the relative viability ([2]; first compound 0.1 µM) was 0.343 and the relative viability ([2]; first compound 0.3162 µM) was 0.259. The relative viability ([2]; first compound 1 µM) was 0.367, the relative viability ([3]; first compound 0.04 µM) was 0.122 and the relative viability ([3]; first compound 0.1265 µM) was 0.175. The relative viability ([3]; first compound 0.4 µM) was 0.123, the relative viability ([3]; first compound 1.265 µM) was 0.145 and the relative viability ([4]; first compound 0.01 µM) was 0.796. For the same cell line, the relative viability ([4]; first compound 0.03162 µM) was 0.781, the relative viability ([4]; first compound 0.1 µM) was 0.885 and the relative viability ([4]; first compound 0.3162 µM) was 0.76. It also gave a relative viability ([4]; first compound 1 µM) of 0.704.
NCI-H2126 showed a relative viability ([1]; first compound 0.04 µM) of 0.346, a relative viability ([1]; first compound 0.1265 µM) of 0.242 and a relative viability ([1]; first compound 0.4 µM) of 0.262. The relative viability ([1]; first compound 1.265 µM) was 0.294, the relative viability ([2]; first compound 0.01 µM) was 0.608 and the relative viability ([2]; first compound 0.03162 µM) was 0.645. For the same cell line, the relative viability ([2]; first compound 0.1 µM) was 0.625, the relative viability ([2]; first compound 0.3162 µM) was 0.698 and the relative viability ([2]; first compound 1 µM) was 0.709. For the same cell line, the relative viability ([3]; first compound 0.04 µM) was 0.733, the relative viability ([3]; first compound 0.1265 µM) was 0.429 and the relative viability ([3]; first compound 0.4 µM) was 0.542. It also gave a relative viability ([3]; first compound 1.265 µM) of 0.52, a relative viability ([4]; first compound 0.01 µM) of 1.07 and a relative viability ([4]; first compound 0.03162 µM) of 1.17. It also gave a relative viability ([4]; first compound 0.1 µM) of 1.11, a relative viability ([4]; first compound 0.3162 µM) of 1.17 and a relative viability ([4]; first compound 1 µM) of 1.12.
Cell Line NCI-H2347 has a relative viability ([1]; first compound 0.04 µM) of 0.289, a relative viability ([1]; first compound 0.1265 µM) of 0.288 and a relative viability ([1]; first compound 0.4 µM) of 0.343. For the same cell line, the relative viability ([1]; first compound 1.265 µM) was 0.189, the relative viability ([2]; first compound 0.01 µM) was 0.667 and the relative viability ([2]; first compound 0.03162 µM) was 0.578. For the same cell line, the relative viability ([2]; first compound 0.1 µM) was 0.701, the relative viability ([2]; first compound 0.3162 µM) was 0.642 and the relative viability ([2]; first compound 1 µM) was 0.674. It also gave a relative viability ([3]; first compound 0.04 µM) of 0.706, a relative viability ([3]; first compound 0.1265 µM) of 0.448 and a relative viability ([3]; first compound 0.4 µM) of 0.206. For the same cell line, the relative viability ([3]; first compound 1.265 µM) was 0.288, the relative viability ([4]; first compound 0.01 µM) was 1.08 and the relative viability ([4]; first compound 0.03162 µM) was 0.574. For the same cell line, the relative viability ([4]; first compound 0.1 µM) was 1.08, the relative viability ([4]; first compound 0.3162 µM) was 0.799 and the relative viability ([4]; first compound 1 µM) was 1.05.
Work on NCI-H2405 yielded a relative viability ([1]; first compound 0.04 µM) of 0.211, a relative viability ([1]; first compound 0.1265 µM) of 0.177 and a relative viability ([1]; first compound 0.4 µM) of 0.185. It also gave a relative viability ([1]; first compound 1.265 µM) of 0.186, a relative viability ([2]; first compound 0.01 µM) of 0.77 and a relative viability ([2]; first compound 0.03162 µM) of 0.773. The relative viability ([2]; first compound 0.1 µM) was 0.719, the relative viability ([2]; first compound 0.3162 µM) was 0.833 and the relative viability ([2]; first compound 1 µM) was 0.78. The relative viability ([3]; first compound 0.04 µM) was 0.549, the relative viability ([3]; first compound 0.1265 µM) was 0.489 and the relative viability ([3]; first compound 0.4 µM) was 0.374. It also gave a relative viability ([3]; first compound 1.265 µM) of 0.432, a relative viability ([4]; first compound 0.01 µM) of 0.907 and a relative viability ([4]; first compound 0.03162 µM) of 0.925. For the same cell line, the relative viability ([4]; first compound 0.1 µM) was 0.96, the relative viability ([4]; first compound 0.3162 µM) was 0.998 and the relative viability ([4]; first compound 1 µM) was 1.04.
In the case of NCI-H3122, the relative viability ([1]; first compound 0.04 µM) is reported as 0.581, the relative viability ([1]; first compound 0.1265 µM) is reported as 0.786 and the relative viability ([1]; first compound 0.4 µM) is reported as 0.348. It also gave a relative viability ([1]; first compound 1.265 µM) of 0.677, a relative viability ([2]; first compound 0.01 µM) of 0.436 and a relative viability ([2]; first compound 0.03162 µM) of 0.409. For the same cell line, the relative viability ([2]; first compound 0.1 µM) was 0.422, the relative viability ([2]; first compound 0.3162 µM) was 0.548 and the relative viability ([2]; first compound 1 µM) was 0.614. For the same cell line, the relative viability ([3]; first compound 0.04 µM) was 0.0763, the relative viability ([3]; first compound 0.1265 µM) was 0.0863 and the relative viability ([3]; first compound 0.4 µM) was 0.0793. It also gave a relative viability ([3]; first compound 1.265 µM) of 0.0682, a relative viability ([4]; first compound 0.01 µM) of 1.04 and a relative viability ([4]; first compound 0.03162 µM) of 0.967. For the same cell line, the relative viability ([4]; first compound 0.1 µM) was 1.04, the relative viability ([4]; first compound 0.3162 µM) was 1.12 and the relative viability ([4]; first compound 1 µM) was 1.01.

From the supplement of paper PMC10307832
